This passage reports IC50 results from patent publication US20120028967A1 (priority 2009, published 2012).

Counter-ions that a name gives are not always drawn.

Chain of α7-subtype of nicotinic receptors (Q05941 23-502): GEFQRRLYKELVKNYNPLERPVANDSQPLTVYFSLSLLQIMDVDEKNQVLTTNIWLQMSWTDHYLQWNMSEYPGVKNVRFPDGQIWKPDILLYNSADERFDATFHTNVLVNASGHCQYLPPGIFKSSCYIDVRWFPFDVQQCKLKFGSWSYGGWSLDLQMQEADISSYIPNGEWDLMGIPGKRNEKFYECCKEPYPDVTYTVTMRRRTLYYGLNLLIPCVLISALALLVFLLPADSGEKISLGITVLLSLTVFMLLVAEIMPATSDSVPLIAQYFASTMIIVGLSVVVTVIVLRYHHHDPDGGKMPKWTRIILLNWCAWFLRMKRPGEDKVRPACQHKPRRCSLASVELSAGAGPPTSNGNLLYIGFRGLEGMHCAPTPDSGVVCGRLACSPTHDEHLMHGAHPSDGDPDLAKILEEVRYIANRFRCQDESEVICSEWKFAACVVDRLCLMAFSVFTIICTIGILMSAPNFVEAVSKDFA

The assay has as its target α7-subtype of nicotinic receptors (Rattus norvegicus, UniProt Q05941). Briefly: biochemical. The format is binding.
On to `Brc1cnc(N2CCN3CCC2CC3)nc1` [Compound 1, 4-(5-Bromo-pyrimidin-2-yl)-1,4-diaza-bicyclo[3.2.2]nonane fumaric acid salt], for which the IC50 (as a rule, the concentration that inhibits the measured activity by half) was found to be 280 nM. Regarding `Ic1cnc(N2CCN3CCC2CC3)nc1` [Compound 2, 4-(5-Iodopyrimidin-2-yl)-1,4-diazabicyclo[3.2.2]nonane fumaric acid salt], 38 nM corresponded to half-maximal inhibition (IC50). `Clc1cnc(N2CCN3CCC2CC3)nc1` [Compound 3, 4-(5-Chloropyrimidin-2-yl)-1,4-diazabicyclo[3.2.2]nonane fumaric acid salt]: the IC50 was found to be 190 nM.
